Here are results for ten compounds from patent US10000498B2, “Selective proton coupled folate transporter and folate receptor, and GARFTase inhibitor compounds and methods of using the same” (Duquesne University of the Holy Spirit, priority 2008, dated 2018).

Like-named read-outs stand apart in the source and are kept apart here.

Series [1] deals with KB human tumor cells (hRFC/FRα). Nature of the series: Growth inhibition of KB human tumor cells (Cell Titer-blue cytotoxicity screen), with or without folic acid. The format is cell-based. Background: Alamar Blue is a resazurin reagent that responds to reducing activity.
The target in series [2] is T1, GARFTase (Homo sapiens, UniProt P22102).
T1 construct: In the in situ GARFTase assay, incorporation of ^14C-glycine into formyl glycinamide ribonucleotide was measured; endogenous in cells
T1 sequence (P22102 1-1010): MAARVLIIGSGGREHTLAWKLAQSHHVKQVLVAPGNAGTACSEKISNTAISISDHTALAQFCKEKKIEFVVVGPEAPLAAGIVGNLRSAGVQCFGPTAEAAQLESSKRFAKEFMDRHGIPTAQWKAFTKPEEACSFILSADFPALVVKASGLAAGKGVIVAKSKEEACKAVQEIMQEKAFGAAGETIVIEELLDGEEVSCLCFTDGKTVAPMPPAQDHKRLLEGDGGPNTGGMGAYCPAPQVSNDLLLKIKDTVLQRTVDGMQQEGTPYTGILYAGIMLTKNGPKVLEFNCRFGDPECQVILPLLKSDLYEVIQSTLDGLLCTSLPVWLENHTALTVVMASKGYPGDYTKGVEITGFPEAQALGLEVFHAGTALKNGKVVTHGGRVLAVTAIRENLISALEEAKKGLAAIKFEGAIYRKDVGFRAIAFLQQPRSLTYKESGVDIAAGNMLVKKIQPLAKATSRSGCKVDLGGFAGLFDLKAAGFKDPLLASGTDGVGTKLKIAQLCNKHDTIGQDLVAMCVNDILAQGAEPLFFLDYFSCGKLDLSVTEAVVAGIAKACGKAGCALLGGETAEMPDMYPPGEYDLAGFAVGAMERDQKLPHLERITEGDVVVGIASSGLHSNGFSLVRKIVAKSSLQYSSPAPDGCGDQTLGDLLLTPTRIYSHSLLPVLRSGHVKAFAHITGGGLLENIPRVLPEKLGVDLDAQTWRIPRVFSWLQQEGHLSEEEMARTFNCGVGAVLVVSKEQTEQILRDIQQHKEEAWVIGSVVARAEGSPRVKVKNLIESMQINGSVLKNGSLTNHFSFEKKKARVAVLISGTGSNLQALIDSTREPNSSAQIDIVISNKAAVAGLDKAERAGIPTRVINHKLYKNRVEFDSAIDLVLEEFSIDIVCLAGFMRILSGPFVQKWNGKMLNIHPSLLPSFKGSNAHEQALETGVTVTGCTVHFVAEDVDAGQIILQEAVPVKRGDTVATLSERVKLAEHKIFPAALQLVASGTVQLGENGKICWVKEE
Kind of series: In situ GARFTase assay (14C-glycine incorporation into formyl glycinamide ribonucleotide). The format is cell-based. As to conditions: mean IC50, SEM in parentheses.

The target in series [3] is FRα (Homo sapiens, UniProt P15328). Nature of the series: FRα binding affinity relative to folic acid. As to conditions: folic acid set to 1.
FRα, sequence (P15328 25-234): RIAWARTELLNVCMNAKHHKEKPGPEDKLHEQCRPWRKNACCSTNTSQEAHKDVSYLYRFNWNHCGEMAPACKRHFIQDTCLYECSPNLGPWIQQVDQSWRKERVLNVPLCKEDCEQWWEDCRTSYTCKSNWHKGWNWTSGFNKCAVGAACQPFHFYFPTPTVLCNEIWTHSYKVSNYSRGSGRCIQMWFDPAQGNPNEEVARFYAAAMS
For series [4], the system named is PC43-10 cells (hRFC-expressing Chinese hamster ovary). Nature of the series: Growth inhibition of hRFC-expressing PC43-10 CHO cells. The format is cell-based.
Series [5] concerns RT16 cells (hFRα-expressing Chinese hamster ovary). Kind of series: Growth inhibition of FR-expressing RT16 CHO cells, with or without folic acid. The format is cell-based. As to conditions: for IC50: Cricetulus griseus, RT16.
The test system of series [6] is R2 CHO cells (hRFC- and FR-null). Nature of the series: Growth inhibition of hRFC- and FR-null R2 CHO cells. It counts as cell-based, Chinese hamster. As to conditions: Cricetulus griseus, RPMI1640/10% dialyzed fetal bovine serum, mean of 2-3 experiments.
Series [7] addresses T2, purified recombinant mouse GARFTase (Mus musculus, UniProt Q64737).
T2 sequence (Q64737 2-1010 limits assumed): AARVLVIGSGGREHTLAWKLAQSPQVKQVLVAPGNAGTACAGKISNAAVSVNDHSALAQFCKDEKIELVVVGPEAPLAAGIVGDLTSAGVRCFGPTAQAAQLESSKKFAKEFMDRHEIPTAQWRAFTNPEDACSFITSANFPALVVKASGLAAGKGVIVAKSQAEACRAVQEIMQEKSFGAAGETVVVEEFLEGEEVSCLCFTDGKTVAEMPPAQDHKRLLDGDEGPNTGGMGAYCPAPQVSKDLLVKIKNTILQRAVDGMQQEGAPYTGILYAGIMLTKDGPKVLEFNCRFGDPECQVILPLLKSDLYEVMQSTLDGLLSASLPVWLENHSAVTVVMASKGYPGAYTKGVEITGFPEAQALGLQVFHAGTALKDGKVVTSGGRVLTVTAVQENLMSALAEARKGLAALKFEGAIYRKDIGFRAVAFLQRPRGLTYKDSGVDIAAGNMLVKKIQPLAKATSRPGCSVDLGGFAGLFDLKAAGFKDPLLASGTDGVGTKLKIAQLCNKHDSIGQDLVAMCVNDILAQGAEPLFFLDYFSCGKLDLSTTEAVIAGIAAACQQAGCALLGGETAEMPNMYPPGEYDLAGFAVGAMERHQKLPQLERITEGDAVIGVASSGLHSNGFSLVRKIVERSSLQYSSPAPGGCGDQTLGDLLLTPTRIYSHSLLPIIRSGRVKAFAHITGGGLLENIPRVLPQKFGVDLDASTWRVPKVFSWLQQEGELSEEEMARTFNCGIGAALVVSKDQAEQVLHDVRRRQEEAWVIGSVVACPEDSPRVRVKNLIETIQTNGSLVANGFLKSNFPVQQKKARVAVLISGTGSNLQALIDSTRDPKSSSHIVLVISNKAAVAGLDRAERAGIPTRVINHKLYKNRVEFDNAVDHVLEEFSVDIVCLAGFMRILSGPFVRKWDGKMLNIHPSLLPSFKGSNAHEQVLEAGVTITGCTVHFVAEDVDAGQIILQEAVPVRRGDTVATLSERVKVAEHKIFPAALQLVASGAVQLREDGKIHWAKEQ
Kind of series: In vitro GARFTase inhibition assay. It counts as biochemical. Conditions: purified recombinant mouse GARFTase; mean IC50, SEM in parentheses.

Series [8] addresses thymidylate synthase (TS) (Homo sapiens, UniProt P04818). Conditions: cited from earlier work.
The conditions of series [9]: mouse, in vivo; cited from earlier work.
The conditions of series [10]: in vivo; cited from earlier work.
Series [11] deals with R2/VC cells (vector control R2 CHO). Nature of the series: Growth inhibition of vector control R2 CHO cells (Cell TiterBlue, 96 h). As to conditions: Cricetulus griseus, read-out: Growth inhibition 50% inhibitory concentration, R2/VC. It counts as cell-based, Chinese hamster.
[12] abbreviates: Homo sapiens, RPMI1640/10% dialyzed fetal bovine serum, without folic acid, read-out: Growth inhibition (IC50, nM) hRFC/FRα KB.
The mark [13] stands for this setting: folate-free RPMI1640/10% dialyzed FBS, 25 nM leucovorin.

The melting point is the temperature, or range, at which the solid turns liquid.

thymidylate synthase (TS), sequence (P04818 whole entry, species assumed): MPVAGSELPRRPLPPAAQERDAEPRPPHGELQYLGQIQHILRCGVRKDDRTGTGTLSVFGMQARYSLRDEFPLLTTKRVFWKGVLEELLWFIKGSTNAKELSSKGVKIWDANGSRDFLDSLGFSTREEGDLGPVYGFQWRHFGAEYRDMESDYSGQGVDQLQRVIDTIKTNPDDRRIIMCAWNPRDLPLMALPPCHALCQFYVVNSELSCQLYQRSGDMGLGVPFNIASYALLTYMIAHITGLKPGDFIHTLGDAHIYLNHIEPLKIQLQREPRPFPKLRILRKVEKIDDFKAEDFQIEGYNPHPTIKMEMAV

As for `Nc1nc2[nH]c(CCCCCc3ccc(C(=O)N[C@@H](CCC(=O)O)C(=O)O)s3)cc2c(=O)[nH]1` [AAG154360, (S)-2-({5-[5-(2-amino-4-oxo-4,7-dihydro-3H-pyrrolo[2,3-d]pyrimidin-6-yl)-pentyl]-thiophene-2-carbonyl}-amino)-pentanedioic acid], the IC50 in series [1] (setting [12]) is 3.4 nM; in series [1] (Homo sapiens, co-treatment with folic acid (200 nM), read-out: Growth inhibition (IC50, nM) hRFC/FRα KB (+FA)), greater than 1000 nM; in [2] it was 0.00765 µM; in [4] (Cricetulus griseus, PC43-10, RPMI1640/10% dialyzed fetal bovine serum, mean of 2-3 experiments, read-out: Growth inhibition (IC50, nM) hRFC PC43-10), greater than 1000 nM; in series [5] (RPMI1640/10% dialyzed fetal bovine serum, without folic acid, read-out: Growth inhibition (IC50, nM) hFRα RT16), 2 nM; in [5] (in the presence of an elevated concentration of folic acid, read-out: Growth inhibition (IC50, nM) hFRα RT16 (+FA)) it was greater than 1000 nM. Further, the IC50 in series [6] was greater than 1000 nM; in [7], 3.31 µM. In series [1] (folic acid 200 nM), the “Effect of folic acid co-treatment on growth inhibition of KB cells” value is recorded as “completely reversed growth inhibition”. In series [3], the “FRα binding affinity compared to folic acid” value was “very high binding affinities”. For the same compound, in series [4] (only RFC), the “Growth inhibition of hRFC-expressing PC43-10 cells (in words)” value is “Neither AAG154353 and AAG154360 showed appreciable growth inhibition”. Further, in series [5] (cells expressing FRα), the “Growth inhibition / FR-targeted activity toward RT16 cells (in words)” value is given as “high level of FR-targeted activity”.

`Nc1nc2[nH]c(CCC#Cc3ccc(C(=O)N[C@@H](CCC(=O)O)C(=O)O)s3)cc2c(=O)[nH]1` [AAG154468, (S)-2-({5-[4-(2-amino-4-oxo-4,7-dihydro-3H-pyrrolo[2,3-d]pyrimidin-6-yl)-but-1-ynyl]-thiophene-2-carbonyl}-amino)-pentanedioic acid] had a melting point of 196 to 197 °C. In series [1] (setting [12]), the IC50 came to 122 nM.

As for `Nc1nc2[nH]c(CCCCc3ccc(C(=O)N[C@@H](CCC(=O)O)C(=O)O)o3)cc2c(=O)[nH]1` [AAG154489, (S)-2-({5-[4-(2-amino-4-oxo-4,7-dihydro-3H-pyrrolo[2,3-d]pyrimidin-6-yl)-butyl]-furan-2-carbonyl}-amino)-pentanedioic acid], in series [1] (setting [12]), the IC50 was 0.3 nM.

For `C#CCN(c1ccc(C(=O)N[C@@H](CCC(=O)N[C@H](CCC(=O)O)C(=O)O)C(=O)O)cc1)[C@H]1CCc2cc3nc(C)[nH]c(=O)c3cc21` [BGC638], in series [8], the “Inhibition of thymidylate synthase (TS) within cells” value is reported as “potently inhibit”.

`C#CCN(c1ccc(C(=O)N[C@@H](CCC(=O)N[C@H](CCC(=O)O)C(=O)O)C(=O)O)cc1)[C@H]1CCc2cc3nc(CO)[nH]c(=O)c3cc21` [BGC945]: the “Inhibition of thymidylate synthase (TS) within cells” value in series [8] was “potently inhibit”. The “Toxicity to normal tissues in mice” value in [9] is listed as “no toxicity to normal tissues”.

As for `Cc1nc2ccc3ccc(CNc4ccc5c(c4)CN([C@@H](CCC(=O)O)C(=O)O)C5=O)cc3c2c(=O)[nH]1` [GW1843U89, reference compound], the IC50 in [1] (RPMI1640/10% dialyzed fetal bovine serum, without folic acid, read-out: Growth inhibition (IC50, nM) hRFC/FRα KB) is 5.8 nM; in series [1] (co-treatment with folic acid (200 nM), read-out: Growth inhibition (IC50, nM) hRFC/FRα KB (+FA)), 32 nM.

Consider `Nc1nc2c(c(=O)[nH]1)C[C@@H](CCc1ccc(C(=O)N[C@@H](CCC(=O)O)C(=O)O)cc1)CN2` [Lometrexol, lometrexol, reference compound], for which the “Toxicity in phase 1 studies” value in [10] is “severe myelosupression”. The IC50 in series [11] was greater than 1 µM; in series [7], 0.78 µM.

For `CN(Cc1cnc2nc(N)nc(N)c2n1)c1ccc(C(=O)N[C@@H](CCC(=O)O)C(=O)O)cc1` [Methotrexate, methotrexate], the IC50 in [11] (setting [13]) was greater than 1 µM.

On to `Nc1nc2[nH]cc(CCc3ccc(C(=O)N[C@@H](CCC(=O)O)C(=O)O)cc3)c2c(=O)[nH]1` [Pemetrexed, pemetrexed, reference compound], for which, in [11], the IC50 was 0.15 ± 0.0225 µM.

`Cc1nc2ccc(CN(C)c3ccc(C(=O)N[C@@H](CCC(=O)O)C(=O)O)s3)cc2c(=O)[nH]1` [Raltitrexed, raltitrexed, reference compound]: the IC50 in series [11] (setting [13]) came out at 0.604 ± 0.0536 µM.
